Consider 41 compounds from patent US20250171460A1, “INDUCERS OF KLF2 AND METHODS OF USE THEREOF” (Riparian Pharmaceuticals, Inc., priority 2022, published 2025).

Some results are limits rather than exact numbers.

One test relates to primary human endothelial cells expressing luciferase under the control of the KLF2 promoter. Put plainly: KLF2 Induction Cell Based Bioassay (luciferase reporter). The following applies: Bioactivity of stereoisomers: S isomer. From the text: In endothelial cell culture media, a stock of the highest working concentration was made at no more than 1% DMSO vehicle. The working stock was then serially diluted 1:2 to make an 11-point concentration response curve. Included in the 96-well plate were 2 reference compounds with known potencies. A DMSO column was included in the 96-well plate at the highest percent vehicle of the working stocks. The 96-well cell culture plate of primary human endothelial cells expressing luciferase under the control of the KLF2 promoter was dosed with 200 μL per well of the dilution series as well as the DMSO control column. The assay plate was incubated at 37° C. for 24 hours. The supernatant was collected at 24 hours.
20 μL of the supernatant was then placed in a 384-well plate with optical duplicates. The corners of the plate received 20 μL of the Gaussia Luciferase Enzyme positive control, as well as 20 μL of the 50 μM Coelenterizine substrate. The plate read is then calibrated using the control, and read using a Molecular Devices SpectraMax iD5, providing luminescence in relative light units (RLU). The plate reader injected 20 μL of the 50 μM Coelenterizine substrate immediately before taking the RLU measurement for each well.
The sample signals were then normalized to the average signal of the DMSO column, as well as to the maximum signal of one of the reference compounds, as shown in the equations below: […]
The EC50 of each compound is then defined as when the concentration response curve passes 0.5.
Regarding `COCCOCCn1cc(CCN2C(=O)c3oc4ccccc4c3OC[C@@]2(C)C(=O)NCc2ccccc2OC)nn1` [Example 136], the “Bioactivity Bucket, S” value is “inactive”.

The same test, now with this note: Homo sapiens, Endothelial cell, 24 h, KLF2 promoter luciferase, 24 hours, 11-point concentration response; read-out: Activity Range (EC50).
On to `COc1ccc(F)c(F)c1CNC(=O)C1(C)COc2c(oc3cc(C(=O)NC4(C)COC4)ccc23)C(=O)N1[C@H]1C[C@@H](OC)C1` (stereo partly drawn) [Example 83], for which the EC50 fell in the range of 0.051 to 0.5 µM.

Turning to `COc1cccnc1CNC(=O)[C@@]1(C)COc2c(oc3cc(-c4nc(C#N)co4)ccc23)C(=O)N1CC(=O)N(C)C` [Example 129, (R)-8-(4-cyanooxazol-2-yl)-4-(2-(dimethylamino)-2-oxoethyl)-N-((3-methoxypyridin-2-yl)methyl)-3-methyl-5-oxo-2,3,4,5-tetrahydrobenzofuro[2,3-f][1,4]oxazepine-3-carboxamide], the EC50 was no more than 0.05 µM. Regarding `COc1cccnc1CNC(=O)C1(C)COc2c(oc3cc(C(=O)NC4(C)COC4)ccc23)C(=O)N1[C@H]1C[C@@H](OC)C1` (stereo partly drawn) [Example 78], the EC50 fell in the range of 0.051 to 0.5 µM.

Take `COc1cccc(Cl)c1CNC(=O)C1(C)COc2c(oc3cc(C(=O)NC4(C)COC4)ccc23)C(=O)N1CC1CC1` (stereo not drawn) [Example 86]: the EC50 was no more than 0.05 µM.

In the case of `COc1ccccc1CNC(=O)C1(C)COc2c(oc3ccccc23)C(=O)N1CC1(F)CCC1` (stereo not drawn) [Example 2], the EC50 is 0.501 to 5 µM.

On to `COCCN1C(=O)c2oc3cc(-c4cscn4)ccc3c2OCC1(C)C(=O)NCc1ccccc1OC` (stereo not drawn) [Example 99], for which the EC50 was 0.501 to 5 µM. In the case of `COCCN1C(=O)c2oc3ccccc3c2OCC1(C)C(=O)NCc1c(Cl)cc(Cl)cc1OC` (stereo not drawn) [Example 44], the EC50 lay in the range of 0.501 to 5 µM. On to `COCCN1C(=O)c2oc3ccccc3c2OCC1(C)C(=O)NCc1cc(F)c(Cl)cc1OC` (stereo not drawn) [Example 45], for which the EC50 lay within 0.501 to 5 µM. Consider `COc1ccccc1CNC(=O)C1(C)COc2c(oc3cc(C(=O)NC4(C)COC4)cnc23)C(=O)N1CC(=O)N(C)C` (stereo not drawn) [Example 121, 4-(2-(dimethylamino)-2-oxoethyl)-N3-(2-methoxybenzyl)-3-methyl-N8-(3-methyloxetan-3-yl)-5-oxo-2,3,4,5-tetrahydropyrido[2′,3′:4,5]furo[2,3-f][1,4]oxazepine-3,8-dicarboxamide], for which the EC50 was in the range of 0.051 to 0.5 µM. `COc1cccc(F)c1CNC(=O)[C@@]1(C)COc2c(oc3ccc(Cl)cc23)C(=O)N1CC(=O)N1CC(O)C1` [Example 105]: the EC50 was 0.051 to 0.5 µM. Consider `COc1cccc(Cl)c1CNC(=O)C1(C)COc2c(oc3cc(C(=O)NC4CCC4)ccc23)C(=O)N1[C@H]1C[C@@H](OC)C1` (stereo partly drawn) [Example 84], for which the EC50 is no more than 0.05 µM. As to `[2H]C([2H])([2H])Oc1ccccc1CNC(=O)C1(C)COc2c(oc3ccccc23)C(=O)N1CCOC` (stereo not drawn) [Example 36], the EC50 lay in the range of 0.501 to 5 µM.

Turning to `[2H]C([2H])([2H])N(C(=O)CN1C(=O)c2oc3ccc(F)cc3c2OC[C@]1(C)C(=O)NCc1c(F)cccc1OC)C([2H])([2H])[2H]` [Example 114, (R)-4-(2-(bis(methyl-d3)amino)-2-oxoethyl)-9-fluoro-N-(2-fluoro-6-methoxybenzyl)-3-methyl-5-oxo-2,3,4,5-tetrahydrobenzofuro[2,3-f][1,4]oxazepine-3-carboxamide], the EC50 lay within 0.051 to 0.5 µM. `COCCN1C(=O)c2oc3ccccc3c2OCC1(C)C(=O)NCc1c(OC)cccc1OC` (stereo not drawn) [Example 33]: the EC50 is 0.501 to 5 µM. `COCCN1C(=O)c2oc3ccccc3c2OCC1(C)C(=O)NCc1c(OC)ccc2cccnc12` (stereo not drawn) [Example 20]: the EC50 was 0.501 to 5 µM.

In the case of `[2H]C([2H])([2H])N(C(=O)CN1C(=O)c2oc3ccc(Cl)cc3c2OC[C@]1(C)C(=O)NCc1c(F)cccc1OC)C([2H])([2H])[2H]` [Example 102, (R)-4-(2-(bis(methyl-d3)amino)-2-oxoethyl)-9-chloro-N-(2-fluoro-6-methoxybenzyl)-3-methyl-5-oxo-2,3,4,5-tetrahydrobenzofuro[2,3-f][1,4]oxazepine-3-carboxamide], the EC50 fell in the range of 0.051 to 0.5 µM.

Consider `COCCN1C(=O)c2oc3ccccc3c2OC[C@]1(C)C(=O)NCc1ccccc1OC` [Example 40], for which the EC50 fell in the range of 0.501 to 5 µM.

For `COc1cc(F)ccc1CNC(=O)C1(C)COc2c(oc3cc(C(=O)NC4CCC4)ccc23)C(=O)N1[C@H]1C[C@@H](OC)C1` (stereo partly drawn) [Example 71], the EC50 fell in the range of 0.051 to 0.5 µM. Turning to `COc1cccnc1CNC(=O)C1(C)COc2c(oc3cc(C(=O)NC4(C)COC4)ccc23)C(=O)N1CC1CC1` (stereo not drawn) [Example 52], the EC50 was 0.051 to 0.5 µM. Still for that read-out and setting: for `COc1cccnc1CNC(=O)[C@@]1(C)COc2c(oc3cc(-c4ncco4)ccc23)C(=O)N1CC(=O)N(C)C` [Example 125, (R)-4-(2-(dimethylamino)-2-oxoethyl)-N-((3-methoxypyridin-2-yl)methyl)-3-methyl-8-(oxazol-2-yl)-5-oxo-2,3,4,5-tetrahydrobenzofuro[2,3-f][1,4]oxazepine-3-carboxamide] the value was no more than 0.05 µM; for `COCCN1C(=O)c2oc3cc(C(=O)NC4(C)COC4)cnc3c2OCC1(C)C(=O)NCc1c(Cl)cccc1OC` (stereo not drawn) [Example 123], 0.051 to 0.5 µM. Take `COc1ccc(F)cc1CNC(=O)C1(C)COc2c(oc3cc(C(=O)NC4(C)COC4)ccc23)C(=O)N1[C@H]1C[C@@H](OC)C1` (stereo partly drawn) [Example 70]: the EC50 was 0.051 to 0.5 µM. Turning to `COCCN1C(=O)c2oc3ccccc3c2OCC1(C)C(=O)NCc1cc(F)ccc1OC` (stereo not drawn) [Example 38], the EC50 lay in the range of 0.501 to 5 µM. Regarding `COCCN1C(=O)c2oc3cc(C(=O)NC4(C)COC4)ccc3c2OCC1(C)C(=O)NCc1c(OC)ccc(F)c1F` (stereo not drawn) [Example 63], the EC50 lay within 0.051 to 0.5 µM. The same measure, in the same setting: as for `COCCN1C(=O)c2oc3cc(C(=O)NC4(C)COC4)cnc3c2OCC1(C)C(=O)NCc1ccccc1OC` (stereo not drawn) [Example 122], the figure is 0.051 to 0.5 µM; as for `C=CCN1C(=O)c2oc3ccccc3c2OCC1(C)C(=O)NCc1ccccc1OC` (stereo not drawn) [Example 12], 0.501 to 5 µM. For the compound `C/C=C/CN1C(=O)c2oc3ccccc3c2OCC1(C)C(=O)NCc1ccccc1OC` (stereo not drawn) [Example 9], the EC50 was in the range of 0.501 to 5 µM.

In the case of `COc1ccccc1CNC(=O)C1(C)COc2c(oc3ccccc23)C(=O)N1CC(C)(C)OC` (stereo not drawn) [Example 3], the EC50 lay in the range of 0.051 to 0.5 µM. For the compound `COCCN1C(=O)c2oc3ccccc3c2OCC1(C)C(=O)NCc1cc(Cl)c(F)cc1OC` (stereo not drawn) [Example 29], the EC50 fell in the range of 0.501 to 5 µM. Regarding `COCCN1C(=O)c2oc3cc(C(=O)NC4(C)COC4)ccc3c2OC[C@]1(C)C(=O)NCc1c(F)cccc1OC` [Example 79], the EC50 is 0.051 to 0.5 µM.

`COCCN1C(=O)c2oc3cc(C(=O)NC4CCC4)ccc3c2OCC1(C)C(=O)NCc1c(OC)ccc(F)c1F` (stereo not drawn) [Example 61]: the EC50 is 0.051 to 0.5 µM. For the compound `COCCN1C(=O)c2oc3ccccc3c2OCC1(C)C(=O)NCc1c(F)cc(F)cc1OC` (stereo not drawn) [Example 22], the EC50 lay within 0.501 to 5 µM. As for `COCCN1C(=O)c2oc3cc(C(=O)NC4(C)COC4)ccc3c2OCC1(C)C(=O)NCc1c(C#N)cccc1OC` (stereo not drawn) [Example 62], the EC50 lay within 0.051 to 0.5 µM. Regarding `COCCN1C(=O)c2oc3ccccc3c2OCC1(C)C(=O)NCc1ccc(Cl)cc1OC` (stereo not drawn) [Example 25], the EC50 lay in the range of 0.501 to 5 µM. On to `COc1cccnc1CNC(=O)[C@@]1(C)COc2c(oc3ccc(Cl)cc23)C(=O)N1CC(=O)N1CC(O)C1` [Example 104], for which the EC50 fell in the range of 0.051 to 0.5 µM. As to `[2H]C([2H])([2H])N(C(=O)CN1C(=O)c2oc3ccc(Cl)cc3c2OCC1(C)C(=O)NCc1ncccc1OCC)C([2H])([2H])[2H]` (stereo not drawn) [Example 109, 4-(2-(bis(methyl-d3)amino)-2-oxoethyl)-9-chloro-N-((3-ethoxypyridin-2-yl)methyl)-3-methyl-5-oxo-2,3,4,5-tetrahydrobenzofuro[2,3-f][1,4]oxazepine-3-carboxamide], the EC50 lay within 0.051 to 0.5 µM. For the compound `COc1cccc(C#N)c1CNC(=O)C1(C)COc2c(oc3cc(C(=O)NC4(C)COC4)ccc23)C(=O)N1CC1CC1` (stereo not drawn) [Example 65], the EC50 is 0.051 to 0.5 µM. For `COc1cccc(F)c1CNC(=O)C1(C)COc2c(oc3ccc(F)cc23)C(=O)N1CC(=O)N(C)CCO` (stereo not drawn) [Example 111, 9-fluoro-N-(2-fluoro-6-methoxybenzyl)-4-(2-((2-hydroxyethyl)(methyl)amino)-2-oxoethyl)-3-methyl-5-oxo-2,3,4,5-tetrahydrobenzofuro[2,3-f][1,4]oxazepine-3-carboxamide], the EC50 was 0.051 to 0.5 µM.

Staying with this test, now noted: Homo sapiens, Endothelial cell, Bioactivity of stereoisomers: R isomer; read-out: Bioactivity Bucket, R.
Turning to `COc1cccnc1CNC(=O)[C@@]1(C)COc2c(oc3cc(-c4nc(C#N)co4)ccc23)C(=O)N1CC(=O)N(C)C` [Example 129, (R)-8-(4-cyanooxazol-2-yl)-4-(2-(dimethylamino)-2-oxoethyl)-N-((3-methoxypyridin-2-yl)methyl)-3-methyl-5-oxo-2,3,4,5-tetrahydrobenzofuro[2,3-f][1,4]oxazepine-3-carboxamide], the EC50 is no more than 0.05 µM. `[2H]C([2H])([2H])N(C(=O)CN1C(=O)c2oc3ccc(Cl)cc3c2OC[C@]1(C)C(=O)NCc1c(F)cccc1OC)C([2H])([2H])[2H]` [Example 102, (R)-4-(2-(bis(methyl-d3)amino)-2-oxoethyl)-9-chloro-N-(2-fluoro-6-methoxybenzyl)-3-methyl-5-oxo-2,3,4,5-tetrahydrobenzofuro[2,3-f][1,4]oxazepine-3-carboxamide]: the EC50 is 0.051 to 0.5 µM. On to `COCCN1C(=O)c2oc3ccccc3c2OC[C@]1(C)C(=O)NCc1ccccc1OC` [Example 40], for which the EC50 was 0.501 to 5 µM.

For `COCCN1C(=O)c2oc3cc(C(=O)NC4(C)COC4)ccc3c2OC[C@]1(C)C(=O)NCc1c(F)cccc1OC` [Example 79], the EC50 was 0.051 to 0.5 µM.

Staying with this test, now noted: Homo sapiens, Endothelial cell, Bioactivity of stereoisomers: racemate; read-out: Bioactivity Bucket, Racemate.
Regarding `C#CCCN1C(=O)c2oc3ccccc3c2OCC1(C)C(=O)NCc1ccccc1OC` (racemic) [Example 5], the EC50 was 0.501 to 5 µM.

Still in this test, the particulars now being: KLF2 promoter luciferase, 24 hours, 11-point concentration response; read-out: Activity Range (EC50).
With `COc1cccc(F)c1CNC(=O)C1(C)COc2c(oc3ccc(Cl)cc23)C(=O)N1Cc1ncnn1C` (stereo not drawn) [Example 108, 9-chloro-N-(2-fluoro-6-methoxybenzyl)-3-methyl-4-((1-methyl-11H-1,2,4-triazol-5-yl)methyl)-5-oxo-2,3,4,5-tetrahydrobenzofuro[2,3-f][1,4]oxazepine-3-carboxamide], the EC50 lay in the range of 0.051 to 0.5 µM.
